Blank lines part the entries; values can stand above or below the molecule they belong to.
What was measured:
Format in all cases: binding
[1] = target: T1, Quinolinate phosphoribosyltransferase (HsQPRT) NΔ9 mutant (Homo sapiens, UniProt Q15274, NΔ9); assay: ITC
T1 construct: gene QPRT; NΔ9, N-terminal truncated (helix α1 removed), dimer

[2] = target: T2, Quinolinate phosphoribosyltransferase (HsQPRT) (Homo sapiens, UniProt Q15274); assay: ITC and crystal structure ([…] Å)
T2 construct: gene QPRT; full-length HsQPRT (residues 1–297), hexamer
T2 sequence (Q15274 whole entry, the tested form may be a part): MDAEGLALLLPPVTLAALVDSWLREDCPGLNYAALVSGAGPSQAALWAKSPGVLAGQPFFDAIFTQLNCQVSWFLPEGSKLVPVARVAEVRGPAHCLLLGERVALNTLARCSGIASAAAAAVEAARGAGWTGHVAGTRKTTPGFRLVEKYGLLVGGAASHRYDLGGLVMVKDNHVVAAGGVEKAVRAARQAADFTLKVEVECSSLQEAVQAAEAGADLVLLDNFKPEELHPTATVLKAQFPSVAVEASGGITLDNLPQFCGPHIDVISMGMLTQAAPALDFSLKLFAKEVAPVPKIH

[3] = target: T2, Quinolinate phosphoribosyltransferase (HsQPRT); assay: co-crystal structure ([…] Å)
[4] = target: T2, Quinolinate phosphoribosyltransferase (HsQPRT); assay: ITC

T1 sequence (Q15274 10-297, stated change not applied): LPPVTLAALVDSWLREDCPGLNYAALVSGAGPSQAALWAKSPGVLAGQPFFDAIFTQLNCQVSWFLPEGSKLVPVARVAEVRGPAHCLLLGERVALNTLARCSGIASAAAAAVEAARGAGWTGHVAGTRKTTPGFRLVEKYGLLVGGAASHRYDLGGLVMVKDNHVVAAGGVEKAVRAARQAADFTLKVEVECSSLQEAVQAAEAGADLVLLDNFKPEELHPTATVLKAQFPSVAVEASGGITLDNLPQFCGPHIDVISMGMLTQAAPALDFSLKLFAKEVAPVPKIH

Kd [1]: 401 ± 56 µM | Kd [2]: 4.8 ± 0.4 µM
SMILES: O=C(O)c1cccnc1C(=O)O [QA, quinolinic acid]

SMILES: O=C(O)c1ccc[n+]([C@@H]2O[C@H](COP(=O)([O-])O)[C@@H](O)[C@H]2O)c1 [NAMN, nicotinic acid mononucleotide]
co-crystal structure (2.6 Å) [3]: clear density for two loops (loops L and O) and the substrate molecules (QA and NAMN) bound to the protein

Kd [4]: 5.2 ± 0.2 µM
SMILES: O=C(O)c1ccccc1C(=O)O [phthalic acid]

From publication PMC4726147, “Structural Insights into the Quaternary Catalytic Mechanism of Hexameric Human Quinolinate Phosphoribosyltransferase, a Key Enzyme in de novo NAD Biosynthesis” (Scientific Reports, 2016)
